This is an account of results in publication PMC8791944, “GLUT3 inhibitor discovery through in silico ligand screening and in vivo validation in eukaryotic expression systems” (Scientific Reports, 2022).

Common to all, as to assay type: cell-based
One data set relates to HL60 leukemia cells. The experiment in a line: MTT cancer cell viability assay, HL60. To be noted: HL60, 48 h. As to the method: (§1) A possible therapeutic application of GLUT3 inhibitors is in oncology, especially for cancers in which GLUT3 is a poor prognosis marker. We tested the effect of GLUT3 inhibitors on the cell viability of several different cancer lines: myeloid leukemia (HL60 and U937), lung cancer (A549), colorectal adenocarcinoma (Caco-2), breast cancer (MCF7), hepatocellular carcinoma (HepG2), and choriocarcinoma (BeWo) cells. GLUT3 inhibitors, at five different concentrations, ranging from 2 to 100 µM, were incubated with cancer cells for 48 h. Then, cell viability was assessed with the MTT assay. […] G3iC and G3iD also affected the leukemia cell lines but at double the concentrations of G3iB and G3iE. […] G3iB had some cytotoxic activity (CC50 < 50 µM) against the highest number of cancer cell lines (HL60, U937, A549, HepG2, and MCF7).
(§2) Cancer cell viability in the presence of GLUT3 inhibitors was assayed using the MTT Cell Viability Kit (Biotium Inc, Freemont, CA) according to manufacturer’s instructions. Cancer cells were grown in the corresponding medium, at 37 °C and 5% CO2 in a humidified incubator. The media (Gibco) for leukemia cells (HL60 and U937), A549, MCF7, BeWo, and HepG2 cells were RPMI 1640, Ham’s F-12K, DMEM:F-12, Ham’s F-12K, and EMEM, respectively, all supplemented with 10% (v/v) fetal bovine serum (HyClone). Caco-2 cells were grown in EMEM supplemented with 20% (v/v) fetal bovine serum. Cells were detached from the culture flasks with Accutase (Innovative Cell Technologies, Inc., San Diego, CA) according to manufacturer’s instructions. Cells were seeded in 96-well plates, at a density of ~ 30,000 cells/well (in 100 µl fresh media) and incubated with varying concentrations of GLUT3 inhibitors for 48 h, at 37 °C and 5% CO2 in a humidified incubator. The inhibitors were dissolved in DMSO, at 100× the final concentration, so that 1 µl of the stock inhibitor concentration was added per well, making the final DMSO concentration 1% (v/v). Therefore, controls for 100% cell viability were cells with 1% (v/v) DMSO without the inhibitors. Controls for 0% cell viability were cells treated with 0.3% (v/v) Tween 20. For MTT assay, 10 µl of MTT reagent was added in each well followed by 3–4 h incubation at 37 °C and 5% CO2 in a humidified incubator. After thoroughly mixing in 200 µl DMSO in each well, the plates were put into a plate reader (BioTek Synergy H1), and the absorbances at 570 nm and 630 nm were measured with Gen5 program (BioTek Inc.). The experimental values represent Abs570 nm-Abs630 nm with each inhibitor condition and control being the average of three wells.
(§3) Supplementary Figure S8. Effect of GLUT3 inhibitors on the viability of various cancer cell lines. Cell viability was determined by MTT assay in A549 (lung cancer), BeWo (choriocarcinoma), Caco-2 (colon cancer), HepG2 (liver cancer), HL-60 (leukemia), MCF7 (breast cancer), and U937 (histiocytic lymphoma) cell lines. GLUT3 inhibitors at concentrations of 2, 5, 10, 20, 50, and 100 µM were incubated with cells in 96-well plates for 48 hours before the addition of the MTT reagent.

The test system of the next data set is U937 leukemia cells. Put plainly: MTT cancer cell viability assay, U937. Particulars: U937, 48 h. As to the method:
as §1, §2, §3

Another data set relates to A549 (lung cancer) cells. Put plainly: MTT cancer cell viability assay, A549. Particulars: A549, 48 h. The procedure: as §1, §2, §3

Usually CC50 stands for the concentration giving 50% cytotoxicity.

On to `Cc1cccnc1OC1CCN(c2cc(N3CCCC3CO)ncn2)CC1` (stereo not shown) [G3iC], for which the half-maximal cytotoxic concentration (CC50) with HL60 leukemia cells (Homo sapiens, HL-60, 48 h) is 31.1 ± 3.8 µM; in the data set with U937 leukemia cells (Homo sapiens, U-937, 48 h), more than 50 µM; with A549 (lung cancer) cells, 21.6 ± 2.5 µM; in the data set on A549 (lung cancer) cells (Homo sapiens) it was approximately 22 µM.
As for `Cc1ccccc1CN(Cc1nnc(C(C)(C)C)o1)c1ccc2nc(O)[nH]c2c1` [G3iF], the CC50 with HL60 leukemia cells (Homo sapiens, HL-60, 48 h) is more than 50 µM; with U937 leukemia cells (Homo sapiens, U-937, 48 h), more than 50 µM; with A549 (lung cancer) cells (Homo sapiens), more than 100 µM.
With `CC(=O)Nc1ccc(S(=O)(=O)Nc2ccc(Nc3cc(N(C)C)nc(C)n3)cc2)cc1` [G3iA, N-(4-{[(4-{[6-(dimethylamino)-2-methylpyrimidin-4-yl]amino}phenyl)amino]sulfonyl}phenyl)acetamide], the CC50 in the data set with HL60 leukemia cells (Homo sapiens, HL-60, 48 h) is more than 100 µM; in the data set with U937 leukemia cells (Homo sapiens, U-937, 48 h), more than 100 µM; in the data set with A549 (lung cancer) cells (Homo sapiens), more than 100 µM.
In the case of `O=C(Nc1cccc(Cl)c1)c1cccc(NC(=O)c2cccc([N+](=O)[O-])c2)c1` [G3iE, N-{3-[(3-chloroanilino)carbonyl]phenyl}-3-nitrobenzamide], the CC50 was 15.7 ± 0.8 µM in the data set with HL60 leukemia cells; less than 20 µM with HL60 leukemia cells (Homo sapiens, HL-60, 48 h); less than 20 µM in the data set on U937 leukemia cells (Homo sapiens, U-937, 48 h); approximately 18 µM in the data set with U937 leukemia cells; more than 50 µM in the data set with A549 (lung cancer) cells; approximately 33 µM in the data set with A549 (lung cancer) cells (Homo sapiens).
Consider `Cc1cc(NC(=O)CCC2Cc3ccccc3NC2=O)nc(-c2ccccc2)n1` (stereo not shown) [G3iD], for which the CC50 in the data set on HL60 leukemia cells (Homo sapiens, HL-60, 48 h) is 28.7 ± 2.1 µM; with U937 leukemia cells (Homo sapiens, U-937, 48 h), more than 50 µM; in the data set with A549 (lung cancer) cells (Homo sapiens), 32.5 ± 14.2 µM.
